Experimental data published in US20240415802A1, “GENISTEIN FOR ASTHMA TREATMENT” (University of South Florida, priority 2022, published 2024).

Tests used:
PAI-1 [1] = target: T1, PAI-1 (Mus musculus, UniProt P22777); conditions: OVA challenge model of allergic asthma; cited from earlier work
T1 sequence (P22777 23-402): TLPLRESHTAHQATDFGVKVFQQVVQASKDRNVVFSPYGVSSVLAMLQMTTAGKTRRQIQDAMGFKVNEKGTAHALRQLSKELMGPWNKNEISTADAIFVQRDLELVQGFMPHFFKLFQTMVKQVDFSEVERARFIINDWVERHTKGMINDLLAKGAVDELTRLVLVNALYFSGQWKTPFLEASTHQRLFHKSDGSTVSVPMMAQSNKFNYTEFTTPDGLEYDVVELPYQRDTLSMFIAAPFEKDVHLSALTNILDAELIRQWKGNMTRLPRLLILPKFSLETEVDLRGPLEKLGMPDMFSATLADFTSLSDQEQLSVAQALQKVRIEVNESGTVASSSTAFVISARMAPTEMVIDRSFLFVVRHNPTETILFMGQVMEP

PAI-1 4G promoter [2] = experiment: PAI-1 promoter luciferase reporter assay in TGF-β stimulated NHBE cells; assay type: cell-based, human; conditions: NHBE cells transfected with 4G vector; TGF-β 2 ng/mL 6 hours; genistein pretreatment 5 μM 1 hour; p=0.007
Description: Normal human bronchial epithelial cells (NHBE) and a human mast cell line, LAD2, were cultured and transfected with luciferase plasmids containing a 4G, 5G or pGL3-basic vector (empty backbone). […] (FIG. 1B)
Normal human bronchial epithelial cells (NHBE) were cultured in 5% CO2 chamber at 37° C. with epithelial cell growth basal media (BEGM, Lonza). Cells were seeded on type 1 collagen-coated plate. Prior to transfection and stimulation, NHBEs were cultured without hydrocortisone (HC) for a day or two, at ˜80% confluency in 12 wells. Passage 2 or 3 was used for the experiment. Cells were transfected with luciferase plasmids containing different Pai-1 polymorphisms, 4G4G, 5G5G, pGL3-luciferase reporter basic vector (empty backbone, Promega, Madison, WI, USA) using Lipofectamine 3000 transfection reagent (Invitrogen, Waltham, MA, USA). Cells were stimulated for 6 hours with TGF-β (2 ng/mL, R&D Systems, Minneapolis, MN, USA) with and without genistein (Sigma-Aldrich, St. Louis, MO, USA) pretreatment (5 μM) for 1 hour. Cells were harvested and lysed in 1×PLB reagent prior to performing Dual-luciferase report assay (DLR assay, Promega, Madison, WI, USA). The firefly luciferase activity and Renilla luciferase activity were measured sequentially.

PAI-1 4G promoter [3] = experiment: PAI-1 promoter luciferase reporter assay in stimulated LAD2 mast cells; assay type: cell-based, human; conditions: cells transfected with 4G vector, genistein pretreatment 5 μM 1 hour
Description: LAD2 cells, a human mast cell line, were cultured and transfected with luciferase plasmids containing a 4G, 5G or pGL3-basic vector to determine the promotor activity. These LAD2 cells were stimulated overnight with IgE (100 ng/mL) and streptavidin (500 ng/mL) (IgE+streptavidin) for IgE-receptor cross-linking or Ionomycin (100 ng/mL) and phorbol myristate acetate (PMA, 10 ng/ml) (Ionomycin+PMA) with or without genistein pretreatment (5 μM) for 1 hour. […] LAD2 cells transfected with the 5G vector didn't increase promoter activity by IgE+Streptavidin/Ionomycin+PMA stimulation compared to no treatment (FIGS. 2C and 2D).
Human mast cells (LAD2) were grown in complete serum-free growth media (Stem pro-34 with the supplement, penicillin/streptomycin, L-glutamine and SCF recombinant, Invitrogen, Waltham, MA, USA). Cells were cultured in cytokine-free media (without SCF recombinant) at density of ˜0.5×10^6 per mL for a day prior to transfection and stimulation. Cells were transfected with luciferase plasmids containing different Pai-1 polymorphisms, 4G4G, 5G5G, pGL3-luciferase reporter basic vector (empty backbone, Promega, Madison, WI) using Lipofectamine 3000 transfection reagent (Invitrogen, Waltham, MA, USA). […] The firefly luciferase activity and Renilla luciferase activity were measured sequentially.

PAI-1 [4] = conditions: normal bronchial epithelial cells; cited from earlier work

| Structure (SMILES) | Airway hyperresponsiveness (AHR) (PAI-1 [1]) | Degree of eosinophilic airway inflammation (PAI-1 [1]) | PAI-1 4G promoter activity increased by TGF-β1 stimulation (PAI-1 4G promoter [2]) | PAI-1 4G promoter activity increased by IgE+Streptavidin stimulation (PAI-1 4G promoter [3]; IgE 100 ng/mL + streptavidin 500 ng/mL, p=0.05) | PAI-1 4G promoter activity increased by Ionomycin+PMA stimulation (PAI-1 4G promoter [3]; Ionomycin 100 ng/mL + PMA 10 ng/ml, p<0.05) | TGF-β1-induced PAI-1 production (PAI-1 [4]) |
| --- | --- | --- | --- | --- | --- | --- |
| O=C(O)C(=O)c1cn(Cc2ccccc2)c2ccc(-c3ccc(OC(F)(F)F)cc3)cc12 [Tiplaxtinin] | reduced | reduced | – | – | – | – |
| O=c1c(-c2ccc(O)cc2)coc2cc(O)cc(O)c12 [genistein, 5,7-dihydroxy-3-(4-hydroxyphenyl)-chromen-4-onc] | – | – | blocked by genistein pretreatment significantly | blocked by genistein pretreatment significantly | blocked by genistein pretreatment significantly | downregulation |
